Test results published in US5492892A, “Endothelin antagonists” (priority 1994, dated 1996).
Bridge positions count the residues as written; N and C are the ends. Ends that are not written are not given here.

How the values were obtained:
[1] = system: isolated, perfused guinea pig lung; test: Vasoconstrictor (agonist) activity, isolated perfused lung preparation, pulmonary artery pressure
Method: Isolated, Perfused Guinea Pig Lung: Another procedure for determining the vasoconstrictor action of the endothelin-active peptides and the blocking action of endothelin antagonists utilizes isolated, perfused guinea pig lung as described in more detail in Example 4, infra.
(§1) The vasoconstrictor activity of Et-1 or Et-3 alone, or in the presence of antagonist, was determined using an isolated, perfused lung preparation (Horgan, M. J., et al. J. Appl. Phsysiol., 63, 93-104 (1987)). Briefly, Hartley guinea pigs (400-500 g) of either sex were anesthetized with 50 mg/kg pentobarbital sodium. Following a tracheotomy, the thorax was opened, the lung and heart excised and the pulmonary artery cannulated. A wide cannula was placed in the left atrium. Perfusion was then started, within 5 min. of opening the thorax. The perfusion flow was set at 28 ml/min. When there was no visible sign of blood in the pulmonary venous effluent, recirculation of the perfusate was started, and pulmonary artery pressure was monitored. Endothelin activity was measured in an accumulative dose-dependent manner for agonist activity by addition of the peptides to a recirculating 300 ml bath. To assess antagonist activity, dose response curves with endothelin were done in the constant presence of antagonist.

vascular beds = details: a number of vascular beds; Anggard et al.; cited from earlier work
[2] = literature reports; cited from earlier work
Et-1 receptor = details: competitive and dose dependent manner; Fabregat et al.; cited from earlier work
endothelin responses = details: Fabregat et al.; cited from earlier work
[3] = system: Et-1 in Perfused Guinea Pig Lung; test: Antagonist activity against Et-1 in perfused guinea pig lung; details: for Pressure Increase Inhibition / Pressure Increase Ppa With Antagonist: antagonist 10^-7 M; for Pressure Increase Ppa With Antagonist: preperfused 5 min then coperfused
Method: as §1
The response with lungs preperfused, for 5 min. with [drawing 44] at a concentration of 10^-7 M before coperfusion with Et-1 was compared with the response determined on lungs perfused only with Et-1. (Results in both Tables 1 and 2 are based on the average of 4-7 determinations for each result).

[4] = system: Et-3 in perfused guinea pig lung; test: Specificity: lung preparations perfused with Et-3, with and without antagonist
Method: as §1
(§2) Specificity of [drawing 47] is illustrated in Table 2 which presents pressure increase data in similar lung preparations perfused with Et-3 and with other vasoconstrictor substances (alpha-thrombin and norepinephrine). As for the results shown in Table 1, pressure increase was determined on lung preparations with and without a 5 minute preperfusion step with 10^-7 M [drawing 48]

[5] = system: alpha-thrombin in perfused guinea pig lung; test: Specificity: lung preparations perfused with alpha-thrombin, with and without antagonist; details: α-Thrombin (10^-8 M); 5 minute preperfusion with 10^-7 M antagonist
Method: as §1, §2

[6] = system: norepinephrine in perfused guinea pig lung; test: Specificity: lung preparations perfused with norepinephrine, with and without antagonist; details: Norepinephrine (10^-7 M); 5 minute preperfusion with 10^-7 M antagonist
Method: as §1, §2

[7] = biological target: endothelin receptors of the isolated, perfused guinea pig lung
[8] = biological target: endothelin receptors of the isolated, perfused guinea pig lung; remark: listed apart in the source
[9] = isolated, perfused guinea pig lung

[Dpr^1 -Asp^15 ]Et-1, sequence (peptide): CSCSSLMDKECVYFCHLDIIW

## CC[C@H](C)[C@H](NC(=O)[C@H](CC(=O)O)NC(=O)[C@H](CC(C)C)NC(=O)[C@H](Cc1c[nH]cn1)NC(=O)[C@@H]1CSSC[C@H](N)C(=O)N[C@@H](CO)C(=O)N[C@H]2CSSC[C@H](NC(=O)[C@H](CCC(=O)O)NC(=O)[C@H](CCCCN)NC(=O)[C@H](CC(=O)O)NC(=O)[C@H](CCSC)NC(=O)[C@H](CC(C)C)NC(=O)[C@H](CO)NC(=O)[C@H](CO)NC2=O)C(=O)N[C@@H](C(C)C)C(=O)N[C@@H](Cc2ccc(O)cc2)C(=O)N[C@@H](Cc2ccccc2)C(=O)N1)C(=O)N[C@H](C(=O)N[C@@H](Cc1c[nH]c2ccccc12)C(=O)O)[C@@H](C)CC [Et-1]
[1]; Et-1 Conc. 2 × 10^-10 M
  Pressure Increase Ppa Without Antagonist: 2.3 cm H2 O
[1]; Et-1 Conc. 10^-9 M
  Pressure Increase Ppa Without Antagonist: 6.1 cm H2 O
[1]; Et-1 Conc. 10^-10 M
  Pressure Increase Ppa Without Antagonist: 1.2 cm H2 O
[1]; [9]
  concentration at which Et-1 is active (dose-dependent increase in pulmonary artery pressure, Ppa): 10^-10 M
  concentration giving a maximal response (increase in Ppa): 10^-8 M
Vascular beds
  apparent potency order of vasoconstriction: Et-2>Et-1>Et-3

## NC[C@H](O)c1ccc(O)c(O)c1 [Norepinephrine]
[1]; Norepinephrine (10^-7 M)
  Ppa Without antagonist: 1.3 cm H2 O

## Et-2: endothelin isopeptide (CSCSSWLDKECVYFCHLDIIW; ends and bridges not checked; cysteine pairing not given here; UniProt P20800 49-69, looked up)
Vascular beds
  apparent potency order of vasoconstriction: Et-2>Et-1>Et-3

## [Ala^3,11 ]Et-1: known Et-1 analog (Randall et al.) (CSASSLMDKEAVYFCHLDIIW; ends and bridges not checked; cysteine pairing not given here; UniProt P05305 53-73, looked up, variant C3A C11A)
[2]
  endothelin activity: shows endothelin activity

## [Ala^4 ]Et-1: known Et-1 analog (Nakajima et al.) (CSCASLMDKECVYFCHLDIIW; ends and bridges not checked; cysteine pairing not given here; UniProt P05305 53-73, looked up, variant S4A)
[2]
  endothelin activity: show appreciable endothelin activity

## [Ala^5 ]Et-1: known Et-1 analog (Nakajima et al.)
[2]
  endothelin activity: show appreciable endothelin activity

## [Asn^8 ]Et-1: known Et-1 analog (Nakajima et al.) (CSCSSLMNKECVYFCHLDIIW; ends and bridges not checked; cysteine pairing not given here; UniProt P05305 53-73, looked up, variant D8N)
[2]
  endothelin activity: show appreciable endothelin activity

## [D-Arg^1, D-Phe^5, D-Trp^7,9, Leu^11 ] substance P
Et-1 receptor
  inhibition of ^125 I-labelled Et-1 binding to an Et-1 receptor: able to inhibit
Endothelin responses
  blocking of endothelin responses: blocks certain endothelin responses

## [Dpr^1 -Asp^15 ]Et-1
[1]; doses as high as 1×10^-6 M
  agonist activity (increase in Ppa): essentially no agonist activity
[3]; Et-1 2 × 10^-10 M
  Pressure Increase Inhibition: 75%
  Pressure Increase Ppa With Antagonist: 0.6 cm H2 O
[3]; Et-1 10^-9 M
  Pressure Increase Inhibition: 65%
  Pressure Increase Ppa With Antagonist: 2.1 cm H2 O
[3]; Et-1 10^-10 M
  Pressure Increase Inhibition: 95%
  Pressure Increase Ppa With Antagonist: 0.06 cm H2 O
[3]; doses higher than 10^-7 M
  blocking activity at higher doses of the analog: did not substantially increase this blocking activity
[4]; Et-3 (10^-9 M), 5 minute preperfusion with 10^-7 M antagonist
  Ppa With antagonist: 5.8 cm H2 O
[4]; lung preparations treated with Et-3, α-thrombin or norepinephrine
  antagonist activity against vasoconstricting substances other than Et-1: no antagonist activity
[5]
  Ppa With antagonist: 8.5 cm H2 O
[6]
  Ppa With antagonist: 1.3 cm H2 O

## [Dpr^1 -Asp^15 ]Et-1 (peptide)
[7]
  Pressure Increase Inhibition (%) of the Et-1 response, lung preperfused and coperfused with 10^-7 M antagonist: 95%

## [Gly^6 ]Et-1: known Et-1 analog (Nakajima et al.) (CSCSSGMDKECVYFCHLDIIW; ends and bridges not checked; cysteine pairing not given here; UniProt P05305 53-73, looked up, variant L6G)
[2]
  endothelin activity: show appreciable endothelin activity

## [Leu^9 ]Et-1: known Et-1 analog (Nakajima et al.) (CSCSSLMDLECVYFCHLDIIW; ends and bridges not checked; cysteine pairing not given here; UniProt P05305 53-73, looked up, variant K9L)
[2]
  endothelin activity: show appreciable endothelin activity

## [Phe^13 ]Et-1: known Et-1 analog (Nakajima et al.) (CSCSSLMDKECVFFCHLDIIW; ends and bridges not checked; cysteine pairing not given here; UniProt P05305 53-73, looked up, variant Y13F)
[2]
  endothelin activity: show appreciable endothelin activity

## [Phe^21 ]Et-1: known Et-1 analog (Nakajima et al.) (CSCSSLMDKECVYFCHLDIIF; ends and bridges not checked; cysteine pairing not given here; UniProt P05305 53-73, looked up, variant W21F)
[2]
  endothelin activity: show appreciable endothelin activity

## [Tyr^21 ]Et-1: known Et-1 analog (Nakajima et al.) (CSCSSLMDKECVYFCHLDIIY; ends and bridges not checked; cysteine pairing not given here; UniProt P05305 53-73, looked up, variant W21Y)
[2]
  endothelin activity: show appreciable endothelin activity

## CTCFTYKDKECVYYCHLDIIW (disulfide 1-15, 3-11) [Endothelin 3]
[8]
  Ppa (cm H2O), isolated perfused guinea pig lung, Et-3 at 10^-9 M without antagonist: 3.8 cm H2O
